Like-named read-outs stand apart in the source and are kept apart here. Blank lines part the entries; values can stand above or below the compound they belong to.
Experiments:
CDK12/Cyclin K = CDK12/Cyclin K (Homo sapiens, UniProt Q9NYV4); experiment: NanoBRET live-cell target engagement, CDK12-NanoLuc/Cyclin K in HEK-293; type: binding
CDK3/Cyclin E1 = CDK3/Cyclin E1 (Homo sapiens, UniProt Q00526); experiment: NanoBRET live-cell target engagement, CDK3-NanoLuc/Cyclin E1 in HEK-293; type: binding
Chain of CDK3/Cyclin E1 (Q00526 whole entry): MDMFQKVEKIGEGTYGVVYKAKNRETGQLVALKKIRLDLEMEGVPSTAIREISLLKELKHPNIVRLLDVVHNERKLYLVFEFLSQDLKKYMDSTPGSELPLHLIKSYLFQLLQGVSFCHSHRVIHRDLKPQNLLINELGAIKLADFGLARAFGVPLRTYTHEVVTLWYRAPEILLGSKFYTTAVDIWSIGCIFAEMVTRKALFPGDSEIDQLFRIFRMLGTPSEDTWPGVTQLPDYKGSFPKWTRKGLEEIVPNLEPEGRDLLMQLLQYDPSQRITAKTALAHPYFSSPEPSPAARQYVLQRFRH
Chain of CDK3/Cyclin E1 (P24864 whole entry partner): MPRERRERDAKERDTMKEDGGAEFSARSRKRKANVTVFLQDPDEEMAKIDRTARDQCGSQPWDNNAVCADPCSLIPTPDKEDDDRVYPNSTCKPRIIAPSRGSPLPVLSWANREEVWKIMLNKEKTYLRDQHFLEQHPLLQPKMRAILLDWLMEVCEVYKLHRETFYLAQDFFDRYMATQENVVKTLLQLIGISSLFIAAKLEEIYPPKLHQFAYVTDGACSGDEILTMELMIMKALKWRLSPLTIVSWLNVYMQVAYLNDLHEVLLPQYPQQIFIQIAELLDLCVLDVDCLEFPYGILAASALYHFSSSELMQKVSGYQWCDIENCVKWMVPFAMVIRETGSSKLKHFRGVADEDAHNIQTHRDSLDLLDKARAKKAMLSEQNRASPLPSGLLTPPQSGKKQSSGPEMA

[1] = CDK12/K, 10µM, average of replicates
[2] = CDK3/E1, 10µM, average of replicates
[3] = CDK3/E1, n=3 average ± SEM, n=2 average to 2 significant figures, read-out: IC50 (nM) Average*
[4] = CDK3/E1, read-out: IC50 (nM) Replicate 1
[5] = CDK3/E1, read-out: IC50 (nM) Replicate 2
[6] = read-out: Inhibition at 10µM (%), CDK12/K, average
[7] = read-out: Inhibition at 10µM (%), CDK12/K, experiment 1
[8] = read-out: Inhibition at 10µM (%), CDK12/K, experiment 2
[9] = CDK3/E1, average, read-out: Inhibition at 10µM (%)
[10] = CDK3/E1, experiment 1, read-out: Inhibition at 10µM (%)
[11] = CDK3/E1, experiment 2, read-out: Inhibition at 10µM (%)
[12] = CDK3/E1, average (± SEM where n=3), read-out: IC50
[13] = CDK3/E1, experiment 1, read-out: IC50
[14] = CDK3/E1, experiment 2, read-out: IC50
[15] = CDK12/K, average, read-out: Inhibition at 10µM (%)
[16] = CDK12/K, experiment 1, read-out: Inhibition at 10µM (%)
[17] = CDK12/K, experiment 2, read-out: Inhibition at 10µM (%)

Chain of CDK12/Cyclin K (Q9NYV4 1-1481 isoform Q9NYV4-2): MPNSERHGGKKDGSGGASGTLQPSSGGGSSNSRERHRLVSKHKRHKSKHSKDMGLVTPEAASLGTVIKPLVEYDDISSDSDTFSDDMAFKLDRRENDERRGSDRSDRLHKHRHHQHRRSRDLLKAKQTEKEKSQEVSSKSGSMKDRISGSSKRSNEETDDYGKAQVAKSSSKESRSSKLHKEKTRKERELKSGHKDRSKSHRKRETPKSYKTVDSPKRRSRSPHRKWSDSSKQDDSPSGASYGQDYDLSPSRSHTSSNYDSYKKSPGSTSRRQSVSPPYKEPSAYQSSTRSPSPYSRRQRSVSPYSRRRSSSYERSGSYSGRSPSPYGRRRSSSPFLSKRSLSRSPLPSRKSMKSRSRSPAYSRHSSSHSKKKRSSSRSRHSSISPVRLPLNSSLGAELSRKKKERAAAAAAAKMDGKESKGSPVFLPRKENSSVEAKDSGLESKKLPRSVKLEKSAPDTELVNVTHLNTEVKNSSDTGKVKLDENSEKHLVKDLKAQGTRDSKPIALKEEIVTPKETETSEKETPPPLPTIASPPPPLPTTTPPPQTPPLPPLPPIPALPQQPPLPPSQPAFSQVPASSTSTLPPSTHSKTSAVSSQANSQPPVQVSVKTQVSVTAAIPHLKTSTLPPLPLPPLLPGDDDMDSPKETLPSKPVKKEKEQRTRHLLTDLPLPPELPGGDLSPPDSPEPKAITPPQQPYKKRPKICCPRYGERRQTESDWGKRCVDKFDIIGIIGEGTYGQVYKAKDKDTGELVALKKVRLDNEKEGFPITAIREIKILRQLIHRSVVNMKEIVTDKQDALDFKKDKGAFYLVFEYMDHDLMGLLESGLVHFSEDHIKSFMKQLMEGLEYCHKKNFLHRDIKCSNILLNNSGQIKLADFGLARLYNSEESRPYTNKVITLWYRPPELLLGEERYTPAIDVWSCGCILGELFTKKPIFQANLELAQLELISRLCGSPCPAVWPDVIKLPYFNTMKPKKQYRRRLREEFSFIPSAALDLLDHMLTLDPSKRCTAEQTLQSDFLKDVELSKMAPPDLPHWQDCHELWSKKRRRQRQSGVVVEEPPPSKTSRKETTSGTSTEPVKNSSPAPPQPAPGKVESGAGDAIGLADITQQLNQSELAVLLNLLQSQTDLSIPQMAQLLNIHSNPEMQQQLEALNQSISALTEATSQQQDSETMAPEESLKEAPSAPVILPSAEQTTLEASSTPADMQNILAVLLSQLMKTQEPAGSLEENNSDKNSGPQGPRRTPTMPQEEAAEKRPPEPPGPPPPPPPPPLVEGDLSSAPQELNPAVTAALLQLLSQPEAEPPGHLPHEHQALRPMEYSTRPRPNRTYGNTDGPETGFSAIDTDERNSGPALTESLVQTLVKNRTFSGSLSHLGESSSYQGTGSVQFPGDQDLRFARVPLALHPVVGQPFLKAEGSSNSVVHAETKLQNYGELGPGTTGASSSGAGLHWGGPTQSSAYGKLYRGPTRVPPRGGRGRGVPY
Chain of CDK12/Cyclin K (O75909 whole entry partner): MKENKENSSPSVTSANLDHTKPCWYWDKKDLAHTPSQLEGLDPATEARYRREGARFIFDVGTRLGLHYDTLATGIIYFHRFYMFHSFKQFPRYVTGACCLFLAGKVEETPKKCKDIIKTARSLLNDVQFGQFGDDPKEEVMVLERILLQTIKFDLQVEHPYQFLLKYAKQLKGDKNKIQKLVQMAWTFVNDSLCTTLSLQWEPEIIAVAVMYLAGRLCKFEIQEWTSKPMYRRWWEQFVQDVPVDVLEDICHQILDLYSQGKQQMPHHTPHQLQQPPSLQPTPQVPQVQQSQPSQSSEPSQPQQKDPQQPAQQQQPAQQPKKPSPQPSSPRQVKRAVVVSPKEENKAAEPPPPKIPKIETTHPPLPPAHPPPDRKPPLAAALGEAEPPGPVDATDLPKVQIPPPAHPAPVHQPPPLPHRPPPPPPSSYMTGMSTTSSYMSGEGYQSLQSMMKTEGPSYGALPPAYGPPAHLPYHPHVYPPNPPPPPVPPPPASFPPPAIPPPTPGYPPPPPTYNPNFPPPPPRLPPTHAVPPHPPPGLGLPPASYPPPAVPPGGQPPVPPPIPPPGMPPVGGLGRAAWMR

SMILES: C[C@H]1CC[C@H](n2c3cnccc3c3cnc(Nc4ccc5c(n4)CCN(C(=O)CO)C5)nc32)CC1 [AMG 925]
- inhibition at 10 µM (CDK12/Cyclin K; read-out: Inhibition at 10µM (%) Average, CDK12/K, 10µM, average of replicates): 8%
- inhibition at 10 µM (CDK12/Cyclin K; read-out: Inhibition at 10µM (%) Replicate 1, CDK12/K, 10µM): 7.8%
- inhibition at 10 µM (CDK12/Cyclin K; read-out: Inhibition at 10µM (%) Replicate 2, CDK12/K, 10µM): 8.2%
- inhibition at 10 µM (CDK3/Cyclin E1; read-out: Inhibition at 10µM (%) Average, CDK3/E1, 10µM, average of replicates): 54.2%
- inhibition at 10 µM (CDK3/Cyclin E1; read-out: Inhibition at 10µM (%) Replicate 1, CDK3/E1, 10µM): 39.2%
- inhibition at 10 µM (CDK3/Cyclin E1; read-out: Inhibition at 10µM (%) Replicate 2, CDK3/E1, 10µM): 69.3%

SMILES: Cc1ncc(-c2ccnc(Nc3ccc(S(C)(=O)=O)cc3)n2)n1C(C)C [AZD5438]
- inhibition at 10 µM (CDK12/Cyclin K; CDK12/K, 10µM, average of replicates, read-out: Inhibition at 10µM (%) Average): 17.1%
- inhibition at 10 µM (CDK12/Cyclin K; CDK12/K, 10µM, read-out: Inhibition at 10µM (%) Replicate 1): 15.7%
- inhibition at 10 µM (CDK12/Cyclin K; CDK12/K, 10µM, read-out: Inhibition at 10µM (%) Replicate 2): 18.5%

SMILES: CNC1CCN(C(=O)c2ccc(Nc3ncc(F)c(-c4cnc(C)n4C(C)C)n3)cc2)C1 (centres unmarked) [AZD5597]
- Inhibition at 10µM (%) Replicate 1 (CDK12/Cyclin K; CDK12/K, 10µM): 44.4%
- Inhibition at 10µM (%) Replicate 2 (CDK12/Cyclin K; CDK12/K, 10µM): 42.5%
- Inhibition at 10µM (%) Average (CDK12/Cyclin K; [1]): 43.5%
- Inhibition at 10µM (%) Replicate 1 (CDK3/Cyclin E1; CDK3/E1, 10µM): 99.1%
- Inhibition at 10µM (%) Replicate 2 (CDK3/Cyclin E1; CDK3/E1, 10µM): 98.8%
- Inhibition at 10µM (%) Average (CDK3/Cyclin E1; [2]): 98.9%
- IC50 (CDK3/Cyclin E1; [3]): 3.4 nM
- IC50 (CDK3/Cyclin E1; [4]): 1.6 nM
- IC50 (CDK3/Cyclin E1; [5]): 5.2 nM

SMILES: CC(C)c1cnn2c(NCc3ccccc3)cc(N[C@@H](CO)[C@H](O)CO)nc12 [BS-194]
- Inhibition at 10µM (%) Replicate 1 (CDK12/Cyclin K; CDK12/K, 10µM): 52.0%
- Inhibition at 10µM (%) Replicate 2 (CDK12/Cyclin K; CDK12/K, 10µM): 55.6%
- Inhibition at 10µM (%) Average (CDK12/Cyclin K; [1]): 53.8%
- IC50 (CDK12/Cyclin K; CDK12/K, n=2 average to 2 significant figures, read-out: IC50 (nM) Average*): 350 nM
- IC50 (CDK12/Cyclin K; CDK12/K, read-out: IC50 (nM) Replicate 1): 187 nM
- IC50 (CDK12/Cyclin K; CDK12/K, read-out: IC50 (nM) Replicate 2): 510 nM
- Inhibition at 10µM (%) Replicate 1 (CDK3/Cyclin E1; CDK3/E1, 10µM): 96.7%
- Inhibition at 10µM (%) Replicate 2 (CDK3/Cyclin E1; CDK3/E1, 10µM): 97.8%
- Inhibition at 10µM (%) Average (CDK3/Cyclin E1; [2]): 97.3%
- IC50 (CDK3/Cyclin E1; [3]): 7.8 nM
- IC50 (CDK3/Cyclin E1; [4]): 6.9 nM
- IC50 (CDK3/Cyclin E1; [5]): 8.6 nM

SMILES: COc1ccc(F)cc1-c1cc(NC(=O)C2CCCNC2)ncc1Cl (centres unmarked) [CDK inhibitor 2]
- inhibition at 10 µM (CDK12/Cyclin K; [6]): 49.3%
- inhibition at 10 µM (CDK12/Cyclin K; [7]): 41%
- inhibition at 10 µM (CDK12/Cyclin K; [8]): 57.6%
- inhibition at 10 µM (CDK3/Cyclin E1; [9]): 92.7%
- inhibition at 10 µM (CDK3/Cyclin E1; [10]): 92.3%
- inhibition at 10 µM (CDK3/Cyclin E1; [11]): 93%

SMILES: CCn1cnc2c(Nc3cccc(Cl)c3)nc(N[C@@H]3CCCC[C@@H]3N)nc21 [CGP74514A]
- Inhibition at 10µM (%) (CDK12/Cyclin K; CDK12/K, average): 36.8%
- Inhibition at 10µM (%) (CDK12/Cyclin K; CDK12/K, experiment 1): 42.2%
- Inhibition at 10µM (%) (CDK12/Cyclin K; CDK12/K, experiment 2): 31.4%
- Inhibition at 10µM (%) (CDK3/Cyclin E1; CDK3/E1, average): 92.7%
- IC50 (CDK3/Cyclin E1; [12]): 75 nM
- Inhibition at 10µM (%) (CDK3/Cyclin E1; CDK3/E1, experiment 1): 92.6%
- IC50 (CDK3/Cyclin E1; [13]): 39 nM
- Inhibition at 10µM (%) (CDK3/Cyclin E1; CDK3/E1, experiment 2): 92.8%
- IC50 (CDK3/Cyclin E1; [14]): 110 nM

- inhibition at 10 µM (CDK12/Cyclin K; [15]): 43.6%
- inhibition at 10 µM (CDK12/Cyclin K; [16]): 42.1%
- inhibition at 10 µM (CDK12/Cyclin K; [17]): 45.2%
SMILES: CC(C)c1cnn2c(NCc3ccccc3)cc(NC[C@H]3CCNC[C@@H]3O)nc12 [CT7001]

- inhibition at 10 µM (CDK12/Cyclin K; [15]): 48.6%
- inhibition at 10 µM (CDK12/Cyclin K; [16]): 51.7%
- inhibition at 10 µM (CDK12/Cyclin K; [17]): 45.6%
- receptor occupancy at 10 µM (CDK12/Cyclin K; primary screen, live HEK-293, read-out: CDK12 occupancy at 10 µM): ~50%
- inhibition at 10 µM (CDK3/Cyclin E1; [9]): 80.6%
- inhibition at 10 µM (CDK3/Cyclin E1; [10]): 78%
- inhibition at 10 µM (CDK3/Cyclin E1; [11]): 83.3%
SMILES: CN1CC[C@H](c2c(O)cc(O)c3c(=O)cc(-c4ccccc4Cl)oc23)[C@H](O)C1 [Flavopiridol]

- inhibition at 10 µM (CDK12/Cyclin K; [15]): 43.7%
- inhibition at 10 µM (CDK12/Cyclin K; [16]): 39%
- inhibition at 10 µM (CDK12/Cyclin K; [17]): 48.3%
SMILES: CN1CCN(Cc2ccc(NC(=O)Nc3ccc(Oc4ccnc(N)n4)cc3)cc2C(F)(F)F)CC1 [K03861]

SMILES: COc1ccccc1-c1cc(Nc2cccc(CS(N)(=O)=O)c2)ncn1 [LDC000067]
- inhibition at 10 µM (CDK12/Cyclin K; [6]): 22.1%
- inhibition at 10 µM (CDK12/Cyclin K; [7]): 7%
- inhibition at 10 µM (CDK12/Cyclin K; [8]): 37.2%
- inhibition at 10 µM (CDK3/Cyclin E1; [9]): 27.7%
- inhibition at 10 µM (CDK3/Cyclin E1; [10]): 23.7%
- inhibition at 10 µM (CDK3/Cyclin E1; [11]): 31.7%

SMILES: CC(C)c1cnn2c(NCc3ccccc3-n3cccn3)nc(OC3CCCNC3)nc12 (centres unmarked) [LDC4297]
- Inhibition at 10µM (%) (CDK12/Cyclin K; CDK12/K, average): 18.0%
- Inhibition at 10µM (%) (CDK12/Cyclin K; CDK12/K, experiment 1): 25.5%
- Inhibition at 10µM (%) (CDK12/Cyclin K; CDK12/K, experiment 2): 10.4%
- Inhibition at 10µM (%) (CDK3/Cyclin E1; CDK3/E1, average): 89.3%
- IC50 (CDK3/Cyclin E1; [12]): 240 ± 70 nM
- Inhibition at 10µM (%) (CDK3/Cyclin E1; CDK3/E1, experiment 1): 89.3%
- IC50 (CDK3/Cyclin E1; [13]): 121 nM
- Inhibition at 10µM (%) (CDK3/Cyclin E1; CDK3/E1, experiment 2): 89.4%
- IC50 (CDK3/Cyclin E1; [14]): 370 nM
- IC50 (CDK3/Cyclin E1; CDK3/E1, experiment 3, read-out: IC50): 234 nM

From PMC7265341, “Quantifying CDK inhibitor selectivity in live cells” (Nature Communications, 2020)
